# Results published in US20120108811A1, “PROCESS FOR PREPARING TEMOZOLOMIDE” (FORMOSA LABORATORIES INC., priority 2010, published 2012).
# How the values were obtained:
# Type in all cases: physicochemical
# [1] = Long-term stability of Temozolomide prepared by the process of the present invention, 2-8° C.; conditions: for AICA NMT 0.15% / Appearance (White to off-white powder) / Assay (HPLC) (98.0-102.0%) / Purity (HPLC) NLT 99.0% / Total impurities NMT 1.00% / Water content (KF), NMT 1.00%: process of the present invention, 2-8° C.
# Protocol: The Temozolomide was stable at temperature 2-8° C. for at least 18 months.
# [2] = Long-term stability of Temozolomide prepared by the process of the present invention, 25° C. ± 2° C., 60% ± 5% RH; conditions: for AICA NMT 0.15% / Appearance (White to off-white powder) / Assay (HPLC) (98.0-102.0%) / Purity (HPLC) NLT 99.0% / Total impurities NMT 1.00% / Water content (KF), NMT 1.00% / AHX NMT 0.15% / Individual unknown impurity NMT 0.10%: process of the present invention, 25° C. ± 2° C., RH 60% ± 5%
# From the text: The Temozolomide was stable at temperature 25 degree ° C. for at least 18 months.
# [3] = Long-term stability of Temozolomide prepared by conventional method, 2-8° C.; conditions: for AICA NMT 0.15% / Appearance (White to off-white powder) / Assay (HPLC) (98.0-102.0%) / Individual unknown impurity NMT 0.10% / Purity (HPLC) NLT 99.0% / Total impurities NMT 1.00% / Water content (KF), NMT 1.00%: conventional method, 2-8° C.
# Protocol: The Temozolomide was stable at temperature 2-8° C.
# [4] = Accelerated stability of Temozolomide prepared by conventional method, 25° C. ± 2° C., 60% ± 5% RH; conditions: for AICA NMT 0.15% / Appearance (White to off-white powder) / Assay (HPLC) (98.0-102.0%) / Individual unknown impurity NMT 0.10% / Purity (HPLC) NLT 99.0% / Total impurities NMT 1.00% / Water content (KF), NMT 1.00%: conventional method, 25° C. ± 2° C., RH 60% ± 5%
structure (smiles),measurement,setting,value
"Cn1nnc2c(C(N)=O)ncn2c1=O [Temozolomide, 8-carbamoyl-3-methyl-imidazo[5,1-d]-1,2,3,5-tetrazin-4(3H)-one]",Time stable,"[1]; prepared by the process of the present invention, temperature 2-8° C.",at least 18 months
same,AICA NMT 0.15%,[1]; 0 time,0.01%
same,Appearance (White to off-white powder),[1]; 0 time,White
same,Assay (HPLC) (98.0-102.0%),[1]; 0 time,99.7%
same,Purity (HPLC) NLT 99.0%,[1]; 0 time,100.0%
same,Total impurities NMT 1.00%,[1]; 0 time,0.01%
same,"Water content (KF), NMT 1.00%",[1]; 0 time,0.09%
same,AICA NMT 0.15%,[1]; 1 month,0.01%
same,Appearance (White to off-white powder),[1]; 1 month,White
same,Assay (HPLC) (98.0-102.0%),[1]; 1 month,98.6%
same,Purity (HPLC) NLT 99.0%,[1]; 1 month,100.0%
same,Total impurities NMT 1.00%,[1]; 1 month,0.01%
same,"Water content (KF), NMT 1.00%",[1]; 1 month,0.07%
same,AICA NMT 0.15%,[1]; 2 months,0.01%
same,Appearance (White to off-white powder),[1]; 2 months,White
same,Assay (HPLC) (98.0-102.0%),[1]; 2 months,99.3%
same,Purity (HPLC) NLT 99.0%,[1]; 2 months,100.0%
same,Total impurities NMT 1.00%,[1]; 2 months,0.01%
same,"Water content (KF), NMT 1.00%",[1]; 2 months,0.04%
same,AICA NMT 0.15%,[1]; 3 months,0.09%
same,Appearance (White to off-white powder),[1]; 3 months,White
same,Assay (HPLC) (98.0-102.0%),[1]; 3 months,99.6%
same,Purity (HPLC) NLT 99.0%,[1]; 3 months,99.7%
same,Total impurities NMT 1.00%,[1]; 3 months,0.09%
same,"Water content (KF), NMT 1.00%",[1]; 3 months,0.09%
same,Appearance (White to off-white powder),[1]; 6 months,White
same,Assay (HPLC) (98.0-102.0%),[1]; 6 months,99.9%
same,Purity (HPLC) NLT 99.0%,[1]; 6 months,100.0%
same,"Water content (KF), NMT 1.00%",[1]; 6 months,0.12%
same,AICA NMT 0.15%,[1]; 9 months,0.01%
same,Appearance (White to off-white powder),[1]; 9 months,White
same,Assay (HPLC) (98.0-102.0%),[1]; 9 months,100.8%
same,Purity (HPLC) NLT 99.0%,[1]; 9 months,100.0%
same,Total impurities NMT 1.00%,[1]; 9 months,0.01%
same,"Water content (KF), NMT 1.00%",[1]; 9 months,0.15%
same,AICA NMT 0.15%,[1]; 12 months,0.02%
same,Appearance (White to off-white powder),[1]; 12 months,Light pink
same,Assay (HPLC) (98.0-102.0%),[1]; 12 months,99.8%
same,Purity (HPLC) NLT 99.0%,[1]; 12 months,100.0%
same,Total impurities NMT 1.00%,[1]; 12 months,0.02%
same,"Water content (KF), NMT 1.00%",[1]; 12 months,0.06%
same,Appearance (White to off-white powder),[1]; 18 months,White
same,Assay (HPLC) (98.0-102.0%),[1]; 18 months,99.8%
same,Purity (HPLC) NLT 99.0%,[1]; 18 months,100.0%
same,"Water content (KF), NMT 1.00%",[1]; 18 months,0.16%
same,Time stable,"[2]; prepared by the process of the present invention, temperature 25 degree ° C.",at least 18 months
same,AICA NMT 0.15%,[2]; 0 time,0.01%
same,Appearance (White to off-white powder),[2]; 0 time,White
same,Assay (HPLC) (98.0-102.0%),[2]; 0 time,99.7%
same,Purity (HPLC) NLT 99.0%,[2]; 0 time,100.0%
same,Total impurities NMT 1.00%,[2]; 0 time,0.01%
same,"Water content (KF), NMT 1.00%",[2]; 0 time,0.09%
same,AICA NMT 0.15%,[2]; 1 month,0.01%
same,Appearance (White to off-white powder),[2]; 1 month,White
same,Assay (HPLC) (98.0-102.0%),[2]; 1 month,100.0%
same,Purity (HPLC) NLT 99.0%,[2]; 1 month,100.0%
same,Total impurities NMT 1.00%,[2]; 1 month,0.01%
same,"Water content (KF), NMT 1.00%",[2]; 1 month,0.12%
same,AICA NMT 0.15%,[2]; 2 months,0.01%
same,Appearance (White to off-white powder),[2]; 2 months,White
same,Assay (HPLC) (98.0-102.0%),[2]; 2 months,99.4%
same,Purity (HPLC) NLT 99.0%,[2]; 2 months,100.0%
same,Total impurities NMT 1.00%,[2]; 2 months,0.01%
same,"Water content (KF), NMT 1.00%",[2]; 2 months,0.04%
same,AHX NMT 0.15%,[2]; 3 months,0.01%
same,AICA NMT 0.15%,[2]; 3 months,0.11%
same,Appearance (White to off-white powder),[2]; 3 months,White
same,Assay (HPLC) (98.0-102.0%),[2]; 3 months,99.4%
same,Purity (HPLC) NLT 99.0%,[2]; 3 months,99.7%
same,Total impurities NMT 1.00%,[2]; 3 months,0.11%
same,"Water content (KF), NMT 1.00%",[2]; 3 months,0.11%
same,Appearance (White to off-white powder),[2]; 6 months,White
same,Assay (HPLC) (98.0-102.0%),[2]; 6 months,99.3%
same,Purity (HPLC) NLT 99.0%,[2]; 6 months,100.0%
same,"Water content (KF), NMT 1.00%",[2]; 6 months,0.13%
same,AICA NMT 0.15%,[2]; 9 months,0.02%
same,Appearance (White to off-white powder),[2]; 9 months,White
same,Assay (HPLC) (98.0-102.0%),[2]; 9 months,100.8%
same,Purity (HPLC) NLT 99.0%,[2]; 9 months,99.9%
same,Total impurities NMT 1.00%,[2]; 9 months,0.02%
same,"Water content (KF), NMT 1.00%",[2]; 9 months,0.17%
same,AHX NMT 0.15%,[2]; 12 months,0.01%
same,AICA NMT 0.15%,[2]; 12 months,0.02%
same,Appearance (White to off-white powder),[2]; 12 months,Light pink
same,Assay (HPLC) (98.0-102.0%),[2]; 12 months,99.8%
same,Individual unknown impurity NMT 0.10%,[2]; 12 months,0.01%
same,Purity (HPLC) NLT 99.0%,[2]; 12 months,99.9%
same,Total impurities NMT 1.00%,[2]; 12 months,0.04%
same,"Water content (KF), NMT 1.00%",[2]; 12 months,0.04%
same,AICA NMT 0.15%,[2]; 18 months,0.01%
same,Appearance (White to off-white powder),[2]; 18 months,White
same,Assay (HPLC) (98.0-102.0%),[2]; 18 months,99.4%
same,Individual unknown impurity NMT 0.10%,[2]; 18 months,0.01%
same,Purity (HPLC) NLT 99.0%,[2]; 18 months,100.0%
same,Total impurities NMT 1.00%,[2]; 18 months,0.02%
same,"Water content (KF), NMT 1.00%",[2]; 18 months,0.07%
same,AICA NMT 0.15%,[3]; 0 time,0.06%
same,Appearance (White to off-white powder),[3]; 0 time,White
same,Assay (HPLC) (98.0-102.0%),[3]; 0 time,101.7%
same,Individual unknown impurity NMT 0.10%,[3]; 0 time,0.01%
same,Purity (HPLC) NLT 99.0%,[3]; 0 time,99.9%
same,Total impurities NMT 1.00%,[3]; 0 time,0.08%
same,"Water content (KF), NMT 1.00%",[3]; 0 time,0.17%
same,AICA NMT 0.15%,[3]; 1 month,0.02%
same,Appearance (White to off-white powder),[3]; 1 month,White
same,Assay (HPLC) (98.0-102.0%),[3]; 1 month,101.4%
same,Individual unknown impurity NMT 0.10%,[3]; 1 month,0.02%
same,Purity (HPLC) NLT 99.0%,[3]; 1 month,100.0%
same,Total impurities NMT 1.00%,[3]; 1 month,0.03%
same,"Water content (KF), NMT 1.00%",[3]; 1 month,0.36%
same,AICA NMT 0.15%,[3]; 2 months,0.04%
same,Appearance (White to off-white powder),[3]; 2 months,White
same,Assay (HPLC) (98.0-102.0%),[3]; 2 months,99.8%
same,Individual unknown impurity NMT 0.10%,[3]; 2 months,0.01%
same,Purity (HPLC) NLT 99.0%,[3]; 2 months,99.9%
same,Total impurities NMT 1.00%,[3]; 2 months,0.06%
same,"Water content (KF), NMT 1.00%",[3]; 2 months,0.20%
same,AICA NMT 0.15%,[3]; 3 months,0.01%
same,Appearance (White to off-white powder),[3]; 3 months,Light beige
same,Assay (HPLC) (98.0-102.0%),[3]; 3 months,99.6%
same,Individual unknown impurity NMT 0.10%,[3]; 3 months,0.01%
same,Purity (HPLC) NLT 99.0%,[3]; 3 months,100.0%
same,Total impurities NMT 1.00%,[3]; 3 months,0.03%
same,"Water content (KF), NMT 1.00%",[3]; 3 months,0.14%
same,AICA NMT 0.15%,[3]; 6 months,0.01%
same,Appearance (White to off-white powder),[3]; 6 months,Light beige
same,Assay (HPLC) (98.0-102.0%),[3]; 6 months,99.7%
same,Individual unknown impurity NMT 0.10%,[3]; 6 months,0.01%
same,Purity (HPLC) NLT 99.0%,[3]; 6 months,99.9%
same,Total impurities NMT 1.00%,[3]; 6 months,0.05%
same,"Water content (KF), NMT 1.00%",[3]; 6 months,0.34%
same,AICA NMT 0.15%,[3]; 9 months,0.04%
same,Appearance (White to off-white powder),[3]; 9 months,Light beige
same,Assay (HPLC) (98.0-102.0%),[3]; 9 months,98.5%
same,Individual unknown impurity NMT 0.10%,[3]; 9 months,0.01%
same,Purity (HPLC) NLT 99.0%,[3]; 9 months,99.9%
same,Total impurities NMT 1.00%,[3]; 9 months,0.05%
same,"Water content (KF), NMT 1.00%",[3]; 9 months,0.21%
same,AICA NMT 0.15%,[3]; 12 months,0.06%
same,Appearance (White to off-white powder),[3]; 12 months,Light beige
same,Assay (HPLC) (98.0-102.0%),[3]; 12 months,99.2%
same,Individual unknown impurity NMT 0.10%,[3]; 12 months,0.02%
same,Purity (HPLC) NLT 99.0%,[3]; 12 months,99.8%
same,Total impurities NMT 1.00%,[3]; 12 months,0.09%
same,"Water content (KF), NMT 1.00%",[3]; 12 months,0.11%
same,Long-term stability (in words),"[3]; prepared by conventional method, temperature 2-8° C.",stable
same,AICA NMT 0.15%,[4]; 0 time,0.06%
same,Appearance (White to off-white powder),[4]; 0 time,White
same,Assay (HPLC) (98.0-102.0%),[4]; 0 time,101.7%
same,Individual unknown impurity NMT 0.10%,[4]; 0 time,0.01%
same,Purity (HPLC) NLT 99.0%,[4]; 0 time,99.9%
same,Total impurities NMT 1.00%,[4]; 0 time,0.08%
same,"Water content (KF), NMT 1.00%",[4]; 0 time,0.17%
same,AICA NMT 0.15%,[4]; 1 month,0.24%
same,Appearance (White to off-white powder),[4]; 1 month,Off-white
same,Assay (HPLC) (98.0-102.0%),[4]; 1 month,101.7%
same,Individual unknown impurity NMT 0.10%,[4]; 1 month,0.01%
same,Purity (HPLC) NLT 99.0%,[4]; 1 month,99.8%
same,Total impurities NMT 1.00%,[4]; 1 month,0.25%
same,"Water content (KF), NMT 1.00%",[4]; 1 month,0.25%
same,AICA NMT 0.15%,[4]; 2 months,0.64%
same,Appearance (White to off-white powder),[4]; 2 months,Off-white
same,Assay (HPLC) (98.0-102.0%),[4]; 2 months,99.4%
same,Individual unknown impurity NMT 0.10%,[4]; 2 months,0.01%
same,Purity (HPLC) NLT 99.0%,[4]; 2 months,99.3%
same,Total impurities NMT 1.00%,[4]; 2 months,0.67%
same,"Water content (KF), NMT 1.00%",[4]; 2 months,0.24%
same,Stability (in words),"[4]; prepared by conventional method, temperature 25 degree ° C.",easily to degrade to out of specification
